Among the data in patent US20250332173A1, “COMPOUNDS AND METHODS FOR MODULATING NUCLEIC ACID SPLICING” (REMIX THERAPEUTICS INC., priority 2021, published 2025) are IC50, GI50 and AC50 values, retold here.

Read-outs that look alike come from different tables or passages of the source.

Test [1] relates to MYB. The experiment in a line: HiBiT protein abundance assay, MYB HiBiT K562 cell line. The following applies: 24 hours, top dose 10 μM. The test is classed as cell-based, human. The method, boiled down:
(§1)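 Endogenous targets in K562 knock-in lines carried a HiBiT tag and were treated for 24 h at 37 °C with 10-point 3-fold dilutions (top 10 μM final, DMSO ≤0.25%). Abundance was read as lytic Nano-Glo HiBiT luminescence. IC50 came from a four-parameter logistic fit of normalized response.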
A general note: HiBiT is a short tag that completes a luciferase, so light tracks the accessible tagged protein.

For test [2], the system named is HTT. The experiment in a line: HiBiT protein abundance assay, HTT HiBiT K562 cell line. The test is classed as cell-based, human. The following applies: 24 hours, top dose 10 μM. A digest of the protocol:
as §1

The test system of test [3] is Target C. Put plainly: HiBiT protein abundance assay, Target C HiBiT K562 cell line. The test is classed as cell-based. The following applies: Homo sapiens; HiBiT lytic detection, modified K562 cells, 24 hours, top dose 10 μM; read-out: Effect on protein abundance, Target C (IC50). The method, then:
• Promega Nano-Glo HiBiT Lytic Detection System (cat #N3030) • Corning 384-well TC-treated microplates (cat #3570) • Synthego Engineered Cells Knock-In Clones
Cells were maintained in IMDM with 10% FBS. Before the assay, cells were diluted with […] growth media (IMDM+[…] media) and were seeded in a 384-well plate at a density of 10,000 cells/well (for each cell line listed in Table 5). Each compound was prepared as a 10-point 3-fold serial dilution in DMSO with the top dose at a final concentration of 10 μM in the well. Unmodified K562 cells were added at the previously specified density with DMSO to serve as an assay baseline and positive control (PC) and DMSO only with the respective modified cell lines was added to the negative control (NC) columns. Final DMSO concentration was kept at or below 0.25%. Treated cell plates were placed in an incubator at 37° C. with […] for 24 hours. After 24 hours, 25 μL of Complete HiBit Lytic reagent was added to each well at room temperature (e.g. one plate requiring 10 mL Lytic Buffer, 100 μL LgBiT Protein, 200 μL Lytic Substrate), shaken for 5 minutes at 600 RPM, then left to sit for 10 minutes for signal to stabilize before reading on a Spark Cyto plate reader (Tecan) with a 500 ms measurement time.
To determine compound effects on protein abundance of each target in Table 5, the percent response for each respective cell line was calculated at each compound concentration as follows:
For the normalized response at each concentration, a four-parameter logistical regression was fit to the data and the response was interpolated at the […] to determine a concentration for protein abundance at […] the untreated control.

The test system of test [4] is K562 (human chronic myelogenous leukemia) cells. Put plainly: Cell Titer Glo 2.0 cell viability assay. The class given is cell-based. The following applies: Homo sapiens, K562, 72 h, read-out: K562 GI50.
For test [5], the system named is MYB mRNA. Put plainly: RT-qPCR splicing assay, MYB canonical junction (CJ) and alternative junction (AJ) mRNA. The class given is cell-based, human. The following applies: Homo sapiens. A digest of the protocol: (§2)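 Following a 24-hour incubation of A673 or K562 cells with serially diluted compound (3-fold steps, highest final 10 uM), the lysates undergo cDNA synthesis plus qPCR. Canonical and alternative junctions are each quantified against PPIA, GAPDH or GUSB.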
In general terms: Real-time PCR tracks product formation cycle by cycle.

For test [6], the system named is Target C. Put plainly: RT-qPCR splicing assay panel, Target C canonical junction (CJ) mRNA. The class given is cell-based, human. The following applies: Homo sapiens, read-out: Target C (decrease in CJ mRNA levels, IC50). A digest of the protocol:
(§3)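 Canonical exon-exon junction transcript levels measured by one-step RT-qPCR of cell lysates, normalized to a housekeeping gene (GAPDH, GUSB or PPIA). Cells used were A673 or K562, exposed for 24 h to compound in 11-point, 3-fold series from 10 uM, with final DMSO at or below 0.25%.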

Test [7] relates to SMN2 mRNA. The experiment in a line: RT-qPCR splicing assay, SMN2 canonical junction (CJ) mRNA. The test is classed as cell-based, human. The following applies: Homo sapiens, read-out: SMN2 (decrease in CJ mRNA levels, IC50). A digest of the protocol:
as §3

Test [8] relates to HTT mRNA. The experiment in a line: RT-qPCR splicing assay, HTT canonical junction (CJ) and alternative junction (AJ) mRNA. The following applies: Homo sapiens. The class given is cell-based, human. A digest of the protocol:
as §2

Test [9] has as its system Target C. The experiment in a line: HiBiT protein abundance assay, Target C (Promega Nano-Glo HiBiT Lytic Detection System, knock-in K562 cell line). The test is classed as cell-based, human. The following applies: Homo sapiens, K562, 24 h, read-out: Effect on protein abundance, Target C (IC50 category). A digest of the protocol:
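HiBiT knock-in K562 cells (10,000/well) were treated for 24 h at 37 °C with a 10-point 3-fold dilution series, top final concentration 10 μM, DMSO ≤0.25%. Lytic HiBiT luminescence was read, normalized to unmodified K562 and DMSO-treated controls, and IC50 was interpolated from a four-parameter logistic fit.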

[10] abbreviates: HiBiT lytic detection, modified K562 cells, read-out: Effect on protein abundance, MYB (IC50).
The mark [11] stands for this setting: HiBiT lytic detection, modified K562 cells, read-out: Effect on protein abundance, HTT (IC50).
[12] abbreviates: K562 cells, 72 hours, Cell Titer Glo 2.0.
Where [13] appears, read: canonical junction qPCR panel, Table 5, read-out: MYB (decrease in CJ mRNA levels, IC50).
The mark [14] stands for this setting: decrease in MYB canonical junction (CJ) mRNA, RT-qPCR, read-out: MYB CJ IC50.
The mark [15] stands for this setting: increase in MYB alternative junction (AJ) mRNA, RT-qPCR, read-out: MYB AJ AC50.
Where [16] appears, read: canonical junction qPCR panel, Table 5.
[17] abbreviates: decrease in HTT canonical junction (CJ) mRNA, RT-qPCR, read-out: HTT CJ IC50.
The mark [18] stands for this setting: increase in HTT alternative junction (AJ) mRNA, RT-qPCR, read-out: HTT AJ AC50.
[19] abbreviates: canonical junction qPCR panel, Table 5, read-out: HTT (decrease in CJ mRNA levels, IC50).

For `Cn1cc2cc(-c3cc4ncn(C5CCNCC5)c(=O)c4cn3)c(O)c(F)c2n1` [Compound 1276], the IC50 in test [1] (setting [10]) was 0.1 to 1 µM; in test [2] (setting [11]) it was below 0.1 µM; in [3] it was below 0.1 µM. In test [4] (setting [12]), the GI50 lay in the range of 0.1 to 1 µM.

`Cc1cn2nc(-c3cnc4c(=O)n(C5CCNCC5)ncc4c3)cc(C)c2n1` [Compound 1411]: the half-maximal inhibitory concentration (IC50) in test [1] (setting [10]), in [2] (setting [11]) and in test [3] was 1 to 10 µM throughout. Moreover, the GI50 in test [4] (setting [12]) fell in the range of 1 to 10 µM.

As for `Cc1cn2nc(-c3ccc4c(=O)n(C5CCN(C6CCC6)C6(CC6)C5)ncc4n3)cc(C)c2n1` (centres unmarked) [Compound 1540, 6-(4-cyclobutyl-4-azaspiro[2.5]octan-7-yl)-2-(2,8-dimethylimidazo[1,2-b]pyridazin-6-yl)pyrido[2,3-d]pyridazin-5-one], the IC50 in [1] (read-out: Effect on protein abundance, MYB (IC50 category), HiBiT K562 cell line) was 0.1 to 1 µM; in test [5] (read-out: MYB (decrease in CJ mRNA levels, IC50)), 100 to 1000 nM; in test [5] (read-out: MYB CJ IC50 (nM)), 100 to 1000 nM; in [2] (read-out: Effect on protein abundance, HTT (IC50 category), HiBiT K562 cell line), 0.1 to 1 µM; in test [6], 0.1 to 1 µM; in test [7] it was below 0.1 µM. Further, the half-maximal inhibitory concentration (IC50) was in the range of 100 to 1000 nM in [8] (read-out: HTT (decrease in CJ mRNA levels, IC50)); 100 to 1000 nM in test [8] (read-out: HTT CJ IC50 (nM)); 0.1 to 1 µM in [9]. In addition, the half-maximal activity concentration (AC50) in test [5] (read-out: MYB AJ AC50 (nM)) and in [8] (read-out: HTT AJ AC50 (nM)) was 100 to 1000 nM throughout. For the same compound, in [4], the concentration for 50% growth inhibition (GI50) lay within 0.1 to 1 µM.

As to `Cn1cc2cc(-n3cnc4ccc(C5=CCNCC5)cc4c3=O)ccc2n1` [Compound 2151], the half-inhibitory concentration (IC50) in [1] (setting [10]) was above 10 µM; in test [5] (setting [13]), 100 to 1000 nM; in test [5] (setting [14]), above 10000 nM; in [2] (setting [11]), above 10 µM; in [3], above 10 µM; in test [7] (setting [16]), above 10 µM. Besides, the IC50 in test [8] (setting [17]) and in test [8] (setting [19]) was above 10000 nM each time. The values for the AC50 in test [5] (setting [15]) and in [8] (setting [18]) were 100 to 1000 nM and above 10000 nM, respectively.

As for `CN1CCN(c2ccc3ncn(-c4ccc5nn(C)cc5c4)c(=O)c3c2)CC1` [Compound 2154], the IC50 in test [1] (setting [10]) is above 10 µM; in test [5] (setting [13]) it was above 10000 nM; in test [5] (setting [14]), above 10000 nM; in [2] (setting [11]), above 10 µM; in test [3], above 10 µM; in [7] (setting [16]), above 10 µM. Besides, the IC50 in [8] (setting [17]) and in test [8] (setting [19]) was above 10000 nM in each case. Moreover, the half-maximal activity concentration (AC50) in [5] (setting [15]) and in test [8] (setting [18]) was above 10000 nM throughout.

In the case of `Cn1cc2cc(-n3cnc4ccc(N5CCNCC5)cc4c3=O)ccc2n1` [Compound 2155], the IC50 in [1] (setting [10]) is above 10 µM; in test [5] (setting [13]), above 10000 nM; in [5] (setting [14]), above 10000 nM; in [2] (setting [11]) it was above 10 µM; in test [3], above 10 µM; in [7] (setting [16]) it was above 10 µM. Also, the 50% inhibitory concentration (IC50) in test [8] (setting [17]) and in test [8] (setting [19]) was above 10000 nM in each case. Also, the half-maximal activity concentration (AC50) in test [5] (setting [15]) and in [8] (setting [18]) was above 10000 nM in each case.

In the case of `Cc1cc(-c2nc3cc(N4CCN(C)CC4)ccc3c(=O)[nH]2)cc2cn(C)nc12` [Compound 2214], the IC50 in test [1] (setting [10]) was above 10 µM; in test [2] (setting [11]), above 10 µM; in test [6] (setting [16]), above 10 µM; in [3], above 10 µM; in [7] (setting [16]) it was above 10 µM; in [8] (setting [17]) it was above 10000 nM. In addition, the IC50 in test [8] (setting [19]) is above 10000 nM. For the same compound, the GI50 in test [4] (setting [12]) lay in the range of 1 to 10 µM. Also, in [8] (setting [18]), the AC50 was above 10000 nM.

What is called IC50 is the concentration that gives 50% inhibition. The GI50 is the concentration that inhibits growth by half. As a reminder, the AC50 is the concentration giving half of the maximal activity seen.
